From the CheMixHub viscosity set
Several values for one entry are separate records, joined by “and”; a condition that tells them apart may be missing. Equal values may be shown once.

What was measured:
[1] = xn = mol fraction of the nth substance listed; settings: 101 kPa

C#CC(C)(C)O
101.32 kPa
Settings | viscosity [mPa·s]
308.15 K | 2.09
313.15 K | 1.775
318.15 K | 1.551
323.15 K | 1.347

C1CCNCC1
101 kPa
Settings | viscosity [mPa·s]
298.15 K | 1.31
303.15 K | 1.21
323.15 K | 0.757

C1CC[C@H]2CCCC[C@H]2C1
viscosity [mPa·s]
Settings | 293.15 K | 303.15 K | 313.15 K | 323.15 K
100 kPa | – | 2.704 | 2.214 | 1.861
101 kPa | 3.337 | 2.444 | – | –
101.3 kPa | 3.361 | 2.641 | – | –

CC(=O)OC(C)C
101 kPa
Settings | viscosity
298.15 K | 0.49 mPa·s
308.15 K | 0.4342 mPa·s and 0.4323 mPa·s

CC(=O)[O-].CC[NH+](CC)CC
101 kPa
Settings | viscosity
303.15 K | 19.6 mPa·s and 19.64 mPa·s
308.15 K | 16.13 mPa·s and 16.13 mPa·s
313.15 K | 14.81 mPa·s

CC(CC(C)(C)C)CC(C)(C)CC(C)(C)C (stereo not given)
viscosity
Settings | 293.15 K | 298.15 K | 303.15 K | 313.15 K | 323.15 K
100 kPa | 3.64 mPa·s and 3.64 mPa·s and 3.782 mPa·s (2×) | – | 2.984 mPa·s | 2.43 mPa·s and 2.43 mPa·s and 2.411 mPa·s (2×) | 2.01 mPa·s and 2.01 mPa·s and 2.018 mPa·s (2×)
101.33 kPa | – | 3.343 mPa·s | – | – | –

CC(O)=S
Settings | viscosity
298.1 K, 101 kPa | 0.687 mPa·s and 0.687 mPa·s

CCCC(=O)O
viscosity
Settings | 293.15 K | 303.15 K | 313.15 K | 323.15 K
101 kPa | 1.778 mPa·s and 1.54 mPa·s and 1.78 mPa·s | 1.296 mPa·s and 1.331 mPa·s and 1.33 mPa·s | 1.12 mPa·s | 0.9885 mPa·s
101.33 kPa | 1.623 mPa·s | – | 1.184 mPa·s | –

CCCC(C)O (stereo not given)
Settings | viscosity
293.15 K, 101.33 kPa | 3.376 mPa·s
298.15 K, 100 kPa | 3.426 mPa·s
298.15 K, 101 kPa | 3.38 mPa·s and 3.2 mPa·s
298.15 K, 101.3 kPa | 3.45 mPa·s
303 K, 101.33 kPa | 2.677 mPa·s
303.15 K, 101 kPa | 2.739 mPa·s
303.15 K, 101.33 kPa | 2.763 mPa·s and 2.888 mPa·s and 2.887 mPa·s
308.15 K, 101 kPa | 2.312 mPa·s
308.15 K, 101.3 kPa | 2.32 mPa·s
313 K, 101.33 kPa | 2.014 mPa·s
313.15 K, 101 kPa | 1.943 mPa·s
313.15 K, 101.3 kPa | 1.92 mPa·s
313.15 K, 101.33 kPa | 2.017 mPa·s
318.15 K, 101 kPa | 1.674 mPa·s
323.15 K, 101 kPa | 1.479 mPa·s
323.15 K, 101.33 kPa | 1.521 mPa·s

CCCCBr
101 kPa
Settings | viscosity
295.95 K | 0.6116 mPa·s
298.15 K | 0.606 mPa·s
303.45 K | 0.5621 mPa·s
308.15 K | 0.552 mPa·s and 0.5235 mPa·s
313.25 K | 0.5057 mPa·s
318.15 K | 0.502 mPa·s
323.15 K | 0.476 mPa·s

CCCCCCCBr
101 kPa
Settings | viscosity [mPa·s]
293.15 K | 1.205
303.15 K | 1.05
313.15 K | 0.925
323.15 K | 0.82

CCCCCCCC[n+]1ccc2ccccc2c1.O=S(=O)([N-]S(=O)(=O)C(F)(F)F)C(F)(F)F
101 kPa
Settings | viscosity
298.15 K | 369.3 mPa·s and 369.3 mPa·s
308.15 K | 191 mPa·s and 191 mPa·s
318.15 K | 108.7 mPa·s and 108.7 mPa·s

CCCCCCn1cc[n+](C)c1C.O=S(=O)([N-]S(=O)(=O)C(F)(F)F)C(F)(F)F
100 kPa
Settings | viscosity [mPa·s]
293.15 K | 172
298.15 K | 129
303.15 K | 99
308.15 K | 78

CCCCNCCCC
viscosity
Settings | 293.15 K | 298.15 K | 303.15 K | 308.15 K | 313.15 K | 318.15 K | 323.15 K
100 kPa | – | 0.81 mPa·s | 0.75 mPa·s | 0.71 mPa·s | – | – | –
101 kPa | – | – | 0.764 mPa·s and 0.7734 mPa·s | 0.7184 mPa·s and 0.6757 mPa·s | 0.6692 mPa·s | 0.6249 mPa·s | 0.5859 mPa·s
101.33 kPa | 0.85 mPa·s | 0.81 mPa·s | 0.73 mPa·s | 0.698 mPa·s | 0.64 mPa·s | 0.611 mPa·s | 0.56 mPa·s

CCCC[N+](C)(CCCC)CCCC.N#C[N-]C#N
101 kPa
Settings | viscosity [mPa·s]
293.15 K | 497.7
303.15 K | 238.9
313.15 K | 127.3
323.15 K | 74.87

CCC[N+]1(C)CCCC1.O=S(=O)([N-]S(=O)(=O)C(F)(F)F)C(F)(F)F
viscosity [mPa·s]
Settings | 293.15 K | 298.15 K | 303.15 K | 308.15 K | 313.15 K | 318.15 K | 323.15 K
101 kPa | – | – | – | – | 34.4 | – | –
101.3 kPa | 76.4 | 61.2 | 49.8 | 41.1 | 34.4 | 29.2 | 25

CCN(C=O)CC
viscosity [mPa·s]
Settings | 298.15 K | 298.16 K | 308.15 K | 323.15 K
101 kPa | 1.25 | 1.139 | 1.03 | 0.86
101.33 kPa | 1.254 | – | – | 0.851

CCOC(=O)C(=O)OCC
101 kPa
Settings | viscosity [mPa·s]
313.15 K | 1.361
323.15 K | 1.154

CC[N+](CC)(CC)CC.[OH-]
viscosity [mPa·s]
Settings | 298.15 K | 303.15 K | 308.15 K | 313.15 K
100 kPa | 4.94 | 4.72 | 4.43 | 4.27
101 kPa | 4.94 | 4.72 | 4.43 | 4.27

COCCO
viscosity
Settings | 293.15 K | 298.15 K | 303.15 K | 308.15 K | 313.15 K | 318.15 K | 323.15 K
100 kPa | – | 1.649 mPa·s and 1.563 mPa·s | 1.457 mPa·s | 1.292 mPa·s | 1.15 mPa·s and 1.188 mPa·s | – | –
101 kPa | 1.78 mPa·s | – | – | – | – | – | 0.931 mPa·s and 0.9856 mPa·s and 0.965 mPa·s
101.3 kPa | – | 1.522 mPa·s and 1.695 mPa·s | 1.381 mPa·s and 1.525 mPa·s and 1.376 mPa·s | 1.242 mPa·s and 1.368 mPa·s | 1.151 mPa·s and 1.155 mPa·s | – | 0.9746 mPa·s
101.33 kPa | – | 1.552 mPa·s | 1.476 mPa·s | – | 1.2 mPa·s and 1.189 mPa·s | 1.098 mPa·s and 1.04 mPa·s and 1.042 mPa·s | –

CCCC(=O)O + O=[N+]([O-])c1ccccc1
viscosity [mPa·s], [1]
Settings | x2 = 0.1103 | x2 = 0.2181 | x2 = 0.3235 | x2 = 0.4266 | x2 = 0.5274 | x2 = 0.6259 | x2 = 0.7225 | x2 = 0.8169 | x2 = 0.9094
298.15 K | 1.829 | 1.83 | 1.837 | 1.841 | 1.837 | 1.82 | 1.786 | 1.732 | 1.653
308.15 K | 1.531 | 1.564 | 1.59 | 1.604 | 1.603 | 1.582 | 1.539 | 1.473 | 1.381
318.15 K | 1.355 | 1.458 | 1.527 | 1.56 | 1.559 | 1.523 | 1.455 | 1.354 | 1.22
